From ChEMBL document CHEMBL1143521, “Synthesis and antitumor activity of 7-ethyl-9-alkyl derivatives of camptothecin” (Bioorg Med Chem Lett, 2005)

Tests used:
Bel-7402 = assay: Inhibitory concentration against human Bel-7402 liver cancer cell line; assay type: functional, cell-based
HCT-116 = assay: Inhibitory concentration against human HCT116 colon cancer cell line; assay type: functional, cell-based
Mus musculus [1] = assay: Average tumor weight in mouse tumor sarcoma-180 model after intraperitoneal administration of 2.5 mg/kg dose; assay type: functional
[2] = Lethal toxicity against mouse tumor sarcoma-180 model after intraperitoneal administration of 2.5 mg/kg dose expressed as number of deaths out of 10 mice; assay type: organism-based; parameters: dose 2.5 mg/kg, route intraperitoneal; conditions: in vivo, ip
Mus musculus [3] = assay: Percent tumor-weight inhibition in mouse tumor sarcoma-180 model after intraperitoneal administration of 2.5 mg/kg dose in comparison with control mice; assay type: functional
Mus musculus [4] = assay: Percent change in body-weight of mouse tumor sarcoma-180 model after intraperitoneal administration of 2.5 mg/kg dose; assay type: functional
Mus musculus [5] = assay: Percent tumor-weight inhibition in mouse tumor sarcoma-180 model after intraperitoneal administration of 5 mg/kg dose in comparison with control mice; assay type: functional
Mus musculus [6] = assay: Average tumor weight in mouse tumor sarcoma-180 model after intraperitoneal administration of 5 mg/kg dose; assay type: functional
Mus musculus [7] = assay: Percent change in body-weight of mouse tumor sarcoma-180 model after intraperitoneal administration of 5 mg/kg dose; assay type: functional
[8] = Lethal toxicity against mouse tumor sarcoma-180 model after intraperitoneal administration of 5 mg/kg dose expressed as number of deaths out of 10 mice; assay type: organism-based; parameters: dose 5 mg/kg, route intraperitoneal; conditions: in vivo, ip
Mus musculus [9] = assay: Percent change in body-weight of mouse tumor sarcoma-180 model after intraperitoneal administration of 75 mg/kg dose; assay type: functional
Mus musculus [10] = assay: Percent tumor-weight inhibition in mouse tumor sarcoma-180 model after intraperitoneal administration of 75 mg/kg dose in comparison with control mice; assay type: functional
[11] = Lethal toxicity against mouse tumor sarcoma-180 model after intraperitoneal administration of 75 mg/kg dose expressed as number of deaths out of […]; assay type: organism-based; parameters: dose 75 mg/kg, route intraperitoneal; conditions: in vivo, ip
Mus musculus [12] = assay: Average tumor weight in mouse tumor sarcoma-180 model after intraperitoneal administration of 75 mg/kg dose; assay type: functional

SMILES	IC50 (Bel-7402)	IC50 (HCT-116)	further results
CC[C@@]1(O)C(=O)OCc2c1cc1n(c2=O)Cc2cc3c(CN(C)C)c(O)ccc3nc2-1 [TOPOTECAN]	3980 nM	100 nM	–
C=CCc1c(O)ccc2nc3c(c(CC)c12)Cn1c-3cc2c(c1=O)COC(=O)[C@]2(O)CC	2750 nM	14 nM	TW (Mus musculus [1]): 0.62; Lethal toxicity [2]: 0; TWI (Mus musculus [3]): 81.2%; BWC (Mus musculus [4]): 9%
CC[C@@]1(O)C(=O)OCc2c1cc1n(c2=O)Cc2cc3cc(O)ccc3nc2-1 [HYDROXYCAMPTOTHECIN]	2470 nM	148 nM	–
CCCc1c(OC)ccc2nc3c(c(CC)c12)Cn1c-3cc2c(c1=O)COC(=O)[C@]2(O)CC	3840 nM	153 nM	–
CCc1c2c(nc3ccc(O)cc13)-c1cc3c(c(=O)n1C2)COC(=O)[C@]3(O)CC [7-ETHYL-10-HYDROXYCAMPTOTHECIN]	3190 nM	7 nM	TWI (Mus musculus [5]): 41.5%; TW (Mus musculus [6]): 1.93; BWC (Mus musculus [7]): 45%; Lethal toxicity [8]: 0
CCCc1c(O)ccc2nc3c(c(CC)c12)Cn1c-3cc2c(c1=O)COC(=O)[C@]2(O)CC	3010 nM	12 nM	–
CCc1c(O)ccc2nc3c(c(CC)c12)Cn1c-3cc2c(c1=O)COC(=O)[C@]2(O)CC	2010 nM	23 nM	–
CCc1c(OC)ccc2nc3c(c(CC)c12)Cn1c-3cc2c(c1=O)COC(=O)[C@]2(O)CC	2400 nM	61 nM	–
O=c1[nH]cc(F)c(=O)[nH]1 [FLUOROURACIL]	–	–	BWC (Mus musculus [9]): 74%; TWI (Mus musculus [10]): 53.9%; Lethal toxicity [11]: 0; TW (Mus musculus [12]): 1.52
C=CCc1c(OC)ccc2nc3c(c(CC)c12)Cn1c-3cc2c(c1=O)COC(=O)[C@]2(O)CC	2160 nM	68 nM	–
